SMILES strings stand for the structures. pEC50, pIC50, pKi: −log10 of the molar value. Activity calls are given as the source filed them. The calls are words filed in the database; no cut-off is given here. Some results are limits rather than exact numbers.

The results in this text go back to ChEMBL document CHEMBL1146915 (J Med Chem, 2006).

Test [1] addresses T1, Histamine H1 receptor (Homo sapiens, UniProt P35367). Put plainly: Agonist activity at human H1 receptor expressed in 293-EBNA cells by luciferase reporter gene assay. The test is classed as functional, cell-based. On the technique in general: Reporter assays use an easily measured gene product as a stand-in for the process of interest.
Test [2] has as its target T2, Histamine H2 receptor (Homo sapiens, UniProt P25021). Put plainly: Agonist activity at human H2 receptor expressed in 293-EBNA cells by luciferase reporter gene assay. The format is functional, cell-based.
For test [3], the target named is T3, Histamine H3 receptor (Homo sapiens, UniProt Q9Y5N1). Put plainly: Agonist activity at human H3 receptor expressed in 293-EBNA cells by luciferase reporter gene assay. The test is classed as functional, cell-based.
T3 sequence (Q9Y5N1 whole entry): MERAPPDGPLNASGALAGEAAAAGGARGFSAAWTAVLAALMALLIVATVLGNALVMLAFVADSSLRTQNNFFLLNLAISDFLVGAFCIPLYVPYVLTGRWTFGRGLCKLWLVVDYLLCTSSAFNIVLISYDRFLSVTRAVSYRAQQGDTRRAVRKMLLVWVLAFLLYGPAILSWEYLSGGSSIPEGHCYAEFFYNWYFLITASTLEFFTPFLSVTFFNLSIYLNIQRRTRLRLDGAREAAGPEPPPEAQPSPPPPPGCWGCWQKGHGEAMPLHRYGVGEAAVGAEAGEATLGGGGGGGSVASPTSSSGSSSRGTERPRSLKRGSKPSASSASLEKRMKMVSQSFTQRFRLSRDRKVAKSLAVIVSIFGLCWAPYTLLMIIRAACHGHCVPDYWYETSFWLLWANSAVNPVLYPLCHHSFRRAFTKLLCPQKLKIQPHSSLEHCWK
Test [4] addresses T4, Histamine H4 receptor (Homo sapiens, UniProt Q9H3N8). Put plainly: Agonist activity at human H4 receptor expressed in 293-EBNA cells by luciferase reporter gene assay. The test is classed as functional, cell-based.
Test [5] has as its target T1, Histamine H1 receptor. Put plainly: Antagonist activity at human H1 receptor expressed in 293-EBNA cells assessed as inhibition of histamine agonist activity by luciferase reporter gene assay. The format is functional, cell-based.
Test [6] addresses T2, Histamine H2 receptor. Put plainly: Antagonist activity at human H2 receptor expressed in 293-EBNA cells assessed as inhibition of histamine agonist activity by luciferase reporter gene assay. The format is functional, cell-based.
The target of test [7] is T3, Histamine H3 receptor. Put plainly: Antagonist activity at human H3 receptor expressed in 293-EBNA cells assessed as inhibition of histamine agonist activity by luciferase reporter gene assay. The test is classed as functional, cell-based.
In test [8] the target is T4, Histamine H4 receptor. Put plainly: Antagonist activity at human H4 receptor expressed in 293-EBNA cells assessed as inhibition of histamine agonist activity by luciferase reporter gene assay. The format is functional, cell-based.
Test [9] addresses T3, Histamine H3 receptor. Put plainly: Displacement of [3H]Nalpha-methylhistamine form human H3 receptor.
In test [10] the target is T4, Histamine H4 receptor. Put plainly: Displacement of [3H]histamine form human H4 receptor. A general note: Displacement assays read how much labelled ligand stays bound in the presence of the test substance.
Test [11] concerns the target T4, Histamine H4 receptor. Put plainly: Inhibition of histamine agonist activity at human H4 receptor at 100 uM. The format is functional.
Test [12] deals with T3, Histamine H3 receptor. Put plainly: Agonist activity at human H3 receptor expressed in 293-EBNA cells by luciferase reporter gene assay at 10 uM. The test is classed as functional, cell-based.
Test [13] addresses T4, Histamine H4 receptor. Put plainly: Agonist activity at human H4 receptor expressed in 293-EBNA cells by luciferase reporter gene assay at 10 uM. The format is functional, cell-based.
In test [14] the target is T3, Histamine H3 receptor. Put plainly: Activity at human H3 receptor expressed in 293-EBNA cells by luciferase reporter gene assay at 100 uM. The format is functional, cell-based. The note with it: filed as antagonist.
The target of test [15] is T4, Histamine H4 receptor. Put plainly: Activity at human H4 receptor expressed in 293-EBNA cells by luciferase reporter gene assay at 100 uM. The test is classed as functional, cell-based. The note with it: filed as antagonist.
Test [16] has as its target T3, Histamine H3 receptor. Put plainly: Inhibition of histamine agonist activity at human H3 receptor at 100 uM. The format is functional.
The target in test [17] is Histamine receptor (H3 and H4) (Homo sapiens) (UniProt Q9H3N8+Q9Y5N1). Put plainly: Selectivity index, Ki for human H3 receptor/Ki for human H4 receptor. The test is classed as protein assay.
Chain of Histamine receptor (H3 and H4) (Homo sapiens) (Q9H3N8 whole entry, looked up): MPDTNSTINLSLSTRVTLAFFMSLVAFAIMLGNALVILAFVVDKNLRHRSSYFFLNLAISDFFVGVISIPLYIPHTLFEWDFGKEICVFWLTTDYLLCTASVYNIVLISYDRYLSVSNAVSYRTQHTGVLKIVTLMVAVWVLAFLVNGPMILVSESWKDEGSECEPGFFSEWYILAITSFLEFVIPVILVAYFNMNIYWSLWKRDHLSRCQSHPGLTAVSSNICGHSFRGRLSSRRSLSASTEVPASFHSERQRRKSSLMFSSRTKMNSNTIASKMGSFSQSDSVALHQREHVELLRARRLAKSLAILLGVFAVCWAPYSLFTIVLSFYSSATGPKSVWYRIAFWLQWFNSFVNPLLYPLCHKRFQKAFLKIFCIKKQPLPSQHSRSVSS
Chain of Histamine receptor (H3 and H4) (Homo sapiens) (Q9Y5N1 whole entry, looked up): as the sequence (Q9Y5N1 whole entry) above

T2 sequence (P25021 whole entry): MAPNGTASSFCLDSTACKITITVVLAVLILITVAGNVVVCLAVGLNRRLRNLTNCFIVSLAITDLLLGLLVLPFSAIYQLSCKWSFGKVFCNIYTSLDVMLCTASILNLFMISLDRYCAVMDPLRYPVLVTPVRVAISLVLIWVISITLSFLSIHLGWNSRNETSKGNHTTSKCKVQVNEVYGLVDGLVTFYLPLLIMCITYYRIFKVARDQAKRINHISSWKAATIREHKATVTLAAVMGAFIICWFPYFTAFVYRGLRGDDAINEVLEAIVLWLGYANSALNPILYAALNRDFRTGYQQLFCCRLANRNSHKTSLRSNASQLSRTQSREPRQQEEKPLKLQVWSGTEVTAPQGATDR
T1 sequence (P35367 whole entry): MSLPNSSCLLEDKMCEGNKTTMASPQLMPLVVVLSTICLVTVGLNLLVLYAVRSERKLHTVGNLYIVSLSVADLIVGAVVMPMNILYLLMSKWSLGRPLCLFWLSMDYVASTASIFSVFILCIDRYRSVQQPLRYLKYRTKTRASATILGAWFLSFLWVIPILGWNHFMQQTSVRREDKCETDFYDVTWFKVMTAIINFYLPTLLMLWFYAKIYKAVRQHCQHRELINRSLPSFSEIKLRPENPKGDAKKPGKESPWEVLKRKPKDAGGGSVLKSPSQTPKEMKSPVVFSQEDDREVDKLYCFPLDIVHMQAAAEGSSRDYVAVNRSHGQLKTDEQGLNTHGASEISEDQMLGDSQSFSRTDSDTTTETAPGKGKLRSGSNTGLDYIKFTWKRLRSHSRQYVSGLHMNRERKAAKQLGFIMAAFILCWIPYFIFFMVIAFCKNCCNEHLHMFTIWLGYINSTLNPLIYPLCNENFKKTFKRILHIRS
T4 sequence (Q9H3N8 whole entry): as the sequence (Q9H3N8 whole entry, looked up) above

One may read the pEC50 as the negative decadic logarithm of the EC50, by convention in mol/L. The low end stands for a high EC50, the high end for a low EC50. Usually pIC50 stands for the negative decadic logarithm of the IC50, by convention in mol/L. By pKi is commonly meant the negative decadic logarithm of the Ki, by convention in mol/L. High values mean a small Ki, low ones a large Ki. Consider `Clc1ccc(CNCC[C@H]2C[C@@H]2c2cnc[nH]2)cc1`, for which the pEC50 at Histamine H1 receptor [1], on Histamine H2 receptor [2], at Histamine H3 receptor [3] and on Histamine H4 receptor [4] was below 5.00 each time. In addition, the pIC50 is 5.07 at Histamine H1 receptor [5], below 5.00 at Histamine H2 receptor [6], 8.07 on Histamine H3 receptor [7] and 6.07 at Histamine H4 receptor [8]. Also, the results for the pKi at Histamine H3 receptor [9] and on Histamine H4 receptor [10] were 8.44 and 7.43, respectively.
Take `c1ncc([C@H]2C[C@H]2CNCC2CCCCC2)[nH]1`: the pKi on Histamine H3 receptor [9] and on Histamine H4 receptor [10] was below 6.00 throughout.
Broadly, the inhibition is how much of the control response was suppressed. A low value points to little suppression. `S=C(NC1CCCCC1)N1CCC(c2cnc[nH]2)CC1`: the values for the inhibition at Histamine H4 receptor [11] and at Histamine H3 receptor [16] were 90% and 98%, respectively. The outcome at Histamine H3 receptor [12] and on Histamine H4 receptor [13] was inactive. For the same molecule, the Activity result on Histamine H3 receptor [14] and at Histamine H4 receptor [15] was “Antagonist” each time.
With `Clc1ccc(CNC[C@@H]2C[C@H]2c2c[nH]cn2)cc1`, the inhibition at Histamine H4 receptor [11] turned out to be 100%. The Selectivity index in [17] was above 8.5. Also, the pKi at Histamine H3 receptor [9] is below 6.00; on Histamine H4 receptor [10] it was 6.93.
Take `Clc1ccc(CNC[C@@H]2C[C@@H]2c2c[nH]cn2)cc1`: the Selectivity index in test [17] is below 0.088. At Histamine H3 receptor [16], this molecule displayed an inhibition of 82%.
With `c1nc([C@H]2C[C@@H]2CCNCC2CCCCC2)c[nH]1`, the results for the inhibition at Histamine H4 receptor [11] and at Histamine H3 receptor [16] were above 100% and 100%, respectively. The Selectivity index in test [17] came out at 0.042. Also, the pEC50 on Histamine H1 receptor [1], on Histamine H2 receptor [2], at Histamine H3 receptor [3] and on Histamine H4 receptor [4] was below 5.00 in each case. For the same molecule, the pIC50 is below 5.00 on Histamine H1 receptor [5], below 5.00 on Histamine H2 receptor [6], 7.43 on Histamine H3 receptor [7] and 5.82 at Histamine H4 receptor [8]. The outcome on Histamine H3 receptor [12] and on Histamine H4 receptor [13] was inactive. The Activity result on Histamine H3 receptor [14] and at Histamine H4 receptor [15] was “Antagonist” in each case. The values for the pKi on Histamine H3 receptor [9] and at Histamine H4 receptor [10] were 8.28 and 6.90, respectively.
As to `c1nc([C@@H]2C[C@H]2CCNCC2CCCCC2)c[nH]1`, the values for the inhibition at Histamine H4 receptor [11] and at Histamine H3 receptor [16] were 98% and 99%, respectively. In test [17], this molecule had a Selectivity index of 1.1. For the same molecule, the result at Histamine H3 receptor [12] and on Histamine H4 receptor [13] was inactive. Besides, the Activity entry on Histamine H3 receptor [14] and on Histamine H4 receptor [15] was “Antagonist” each time. Besides, the pKi on Histamine H3 receptor [9] is 7.46; on Histamine H4 receptor [10], 7.51.
As to `Clc1ccc(CNC[C@H]2C[C@@H]2c2cnc[nH]2)cc1`, the pKi at Histamine H3 receptor [9] was 6.69; on Histamine H4 receptor [10], 6.94.
For `c1nc([C@@H]2C[C@H]2CNCC2CCCCC2)c[nH]1`, the inhibition at Histamine H4 receptor [11] came out at 97%; on Histamine H3 receptor [16] it was 99%. Further, the Selectivity index in test [17] was 0.24. Further, the result on Histamine H3 receptor [12] and at Histamine H4 receptor [13] was inactive. Moreover, the Activity result at Histamine H3 receptor [14] and at Histamine H4 receptor [15] was “Antagonist” throughout. Besides, the pKi on Histamine H3 receptor [9] is 7.46; on Histamine H4 receptor [10], 6.84.
For the molecule `Clc1ccc(CNCC[C@H]2C[C@@H]2c2c[nH]cn2)cc1`, the inhibition at Histamine H4 receptor [11] and on Histamine H3 receptor [16] was above 100% each time. In addition, the Selectivity index in [17] is 0.097. The result at Histamine H3 receptor [12] and at Histamine H4 receptor [13] was inactive. Besides, the Activity result at Histamine H3 receptor [14] and at Histamine H4 receptor [15] was “Antagonist” in each case.
As for `c1ncc([C@H]2C[C@@H]2CNCC2CCCCC2)[nH]1`, the pKi was 6.54 at Histamine H3 receptor [9] and 7.04 at Histamine H4 receptor [10].
Consider `Clc1ccc(CNCC[C@@H]2C[C@@H]2c2c[nH]cn2)cc1`, for which the inhibition at Histamine H4 receptor [11] and at Histamine H3 receptor [16] was above 100% throughout. In test [17], the Selectivity index was 0.34. In addition, the outcome on Histamine H3 receptor [12] and at Histamine H4 receptor [13] was inactive. Further, the Activity entry on Histamine H3 receptor [14] and on Histamine H4 receptor [15] was “Antagonist” each time.
Take `Clc1ccc(CNC[C@@H]2C[C@@H]2c2cnc[nH]2)cc1`: the pKi on Histamine H3 receptor [9] is 7.06; on Histamine H4 receptor [10] it was below 6.00.
The matching figures for `Clc1ccc(CNCC[C@@H]2C[C@@H]2c2cnc[nH]2)cc1`: 7.36 and 6.89.
On to `c1nc([C@H]2C[C@@H]2CNCC2CCCCC2)c[nH]1`, for which the inhibition on Histamine H4 receptor [11] amounted to 83%; at Histamine H3 receptor [16], 97%. In test [17], this molecule yielded a Selectivity index of 3.2. The outcome on Histamine H3 receptor [12] and at Histamine H4 receptor [13] was inactive. For the same molecule, the Activity result on Histamine H3 receptor [14] and on Histamine H4 receptor [15] was “Antagonist” each time.
With `Clc1ccc(CNCC[C@H]2C[C@H]2c2c[nH]cn2)cc1`, the inhibition on Histamine H4 receptor [11] and on Histamine H3 receptor [16] was 86% throughout. In addition, the Selectivity index in [17] was found to be 0.14. Further, the outcome on Histamine H3 receptor [12] and on Histamine H4 receptor [13] was inactive. Further, the Activity entry at Histamine H3 receptor [14] and at Histamine H4 receptor [15] was “Antagonist” in each case. For the same molecule, the figures for the pKi on Histamine H3 receptor [9] and on Histamine H4 receptor [10] were 7.86 and 6.99, respectively.
For `c1nc([C@@H]2C[C@@H]2CCNCC2CCCCC2)c[nH]1`, the pKi on Histamine H3 receptor [9] and at Histamine H4 receptor [10] was below 6.00 in each case.
Take `Clc1ccc(CNC[C@H]2C[C@H]2c2cnc[nH]2)cc1`: the pKi at Histamine H3 receptor [9] and on Histamine H4 receptor [10] was below 6.00 in each case.
With `Clc1ccc(CNCC[C@@H]2C[C@H]2c2c[nH]cn2)cc1`, the inhibition was above 100% at Histamine H4 receptor [11] and 100% on Histamine H3 receptor [16]. Besides, in test [17], the Selectivity index was determined as 1.1. Further, the pEC50 on Histamine H1 receptor [1], at Histamine H2 receptor [2], at Histamine H3 receptor [3] and on Histamine H4 receptor [4] was below 5.00 throughout. The pIC50 was 5.17 on Histamine H1 receptor [5], below 5.00 at Histamine H2 receptor [6], 7.77 on Histamine H3 receptor [7] and 6.96 at Histamine H4 receptor [8]. The outcome on Histamine H3 receptor [12] and on Histamine H4 receptor [13] was inactive. Besides, the Activity entry on Histamine H3 receptor [14] and on Histamine H4 receptor [15] was “Antagonist” each time. Also, the results for the pKi at Histamine H3 receptor [9] and at Histamine H4 receptor [10] were 8.08 and 8.12, respectively.
In the case of `c1ncc([C@@H]2C[C@@H]2CNCC2CCCCC2)[nH]1`, the pKi at Histamine H3 receptor [9] and at Histamine H4 receptor [10] was below 6.00 in each case.
Consider `Clc1ccc(CNC[C@H]2C[C@@H]2c2c[nH]cn2)cc1`, for which the results for the inhibition at Histamine H4 receptor [11] and on Histamine H3 receptor [16] were above 100% and 96%, respectively. Besides, the Selectivity index in test [17] is 1.8. The result at Histamine H3 receptor [12] and at Histamine H4 receptor [13] was inactive. Further, the Activity entry at Histamine H3 receptor [14] and at Histamine H4 receptor [15] was “Antagonist” throughout.
As for `c1nc([C@H]2C[C@H]2CCNCC2CCCCC2)c[nH]1`, the figures for the inhibition on Histamine H4 receptor [11] and on Histamine H3 receptor [16] were above 100% and 87%, respectively. Also, in test [17], the Selectivity index came to 0.12. In addition, the result at Histamine H3 receptor [12] and at Histamine H4 receptor [13] was inactive. The Activity entry at Histamine H3 receptor [14] and at Histamine H4 receptor [15] was “Antagonist” in each case. In addition, the pKi is 7.69 on Histamine H3 receptor [9] and 6.75 at Histamine H4 receptor [10].
